Data set [1] concerns MCF-7 (breast carcinoma) cell line. The experiment in a line: MTT assay, MCF-7. The class given is cell-based, human. To be noted: mean ± SD, triplicate. From the text: (§1) The cytotoxic activity of the designed compounds (4a-4l) was obtained by MTT assay (standard 3-(4,5-dimethylthiazol-yl)-2,5-diphenyl-tetrazolium bromide) according to our previous protocols. Two human cancer cell lines including MCF-7 (breast carcinoma) and HEPG-2 (Hepatocellular carcinoma) were purchased from the National Cell Bank of Iran (NCBI, Pasteur Institute, Tehran, Iran). RPMI 1640 culture media was used to culture cancer cell lines. The media was supplemented with 10% fetal bovine serum (FBS) and 1% penicillin–streptomycin (Gibco, USA), and the cells were kept at 37 °C in a humidified CO2 incubator. For the MTT assay, trypsin/EDTA 0.5% solution (Gibco/USA) was applied to harvest cells and seeded in 96-well microplates at a density of 1 × 10^4 cells per well [26]. Five different concentrations of the designed compounds and Cisplatin as the positive control (1–200 μM) were used for treatment in triplicate times. Three untreated wells were used as the negative control. After 72 h, the media was changed by 100 μL fresh MTT solution and incubated for 4 h at 37 °C in the incubator to obtain formazan purple crystals. Finally, the media was removed and 150 μL of DMSO was added and incubated at 37 °C in dark for 10 min to dissolve the crystals. The absorbance of individual wells was read at 490 nm using a microplate ELISA reader. Excel 2016 and Curve Expert 1.4 were used to analyze the data. The data were presented as mean ± SD for each analysis.

The subject of data set [2] is normal lung cell line (MRC-5). The experiment in a line: MTT assay, MRC-5 normal cells. The class given is cell-based. In general terms: Tetrazolium assays rely on reduction of a dye to a coloured formazan, in cell work by metabolically active cells.
Data set [3] deals with HEPG-2 (Hepatocellular carcinoma) cell line. The experiment in a line: MTT assay, HEPG-2. To be noted: mean ± SD, triplicate. Format: cell-based, human.
Text: as §1

Data set [4] deals with MCF-7 and HEPG-2 cell lines. Description: MTT assay, ranges over both cancer cell lines. The class given is cell-based. Conditions: Homo sapiens; range spans both cell lines.
Text: as §1, with “Excel 2016 and Curve Expert 1.4 were used to analyze the data. The data were presented as mean ± SD for each analysis.” left out

The next data set deals with Hela cell line. The arrangement: method as in PMID 33808444. Conditions: cited from earlier work.
The next data set concerns Huha cell line. More on the design: method as in PMID 33808444. Conditions: cited from earlier work.
The test system of data set [5] is a studied cancer cell line. The arrangement: method as in PMID 32736079. To be noted: cited from earlier work.
Setting [6] is: Homo sapiens, MRC5, read-out: IC50 ± SD, MRC-5.

IC50 and melting point data for 13 compounds are collected here from article PMC10765869, “Synthesis, design, biological evaluation, and computational analysis of some novel uracil-azole derivatives as cytotoxic agents” (BMC Chemistry, 2024).

Where two headings read alike, the source gives them in different places.

As to `Cc1ccc(Cn2c(-n3ccnc3C)cc(=O)n(C)c2=O)cc1` [Compound 4f, 3-methyl-1-(4-methylbenzyl)-6-(2-methyl-H1-imidazole-1-yl) pyrimidine-2,4-(H1, H3) dione], the melting point – broadly, the temperature, or range, at which the solid turns liquid – fell in the range of 120 to 122 °C. Further, the half-maximal inhibitory concentration (IC50) (usually the concentration needed to halve the response being measured) in data set [1] (Homo sapiens, MCF7, 72 h) came out at 65.5 ± 3.1 µM. Moreover, the IC50 in data set [2] (setting [6]) is > 200 µM. This compound also yielded an IC50 in data set [3] (Homo sapiens, HepG2, 72 h) of 55.9 ± 6.58 µM.

In turn, `Cn1c(=O)cc(-n2cncn2)n(Cc2ccccc2)c1=O` [Compound 4h, 3-methyl-1-(benzyl)-6-(H1-1,2,4-triazole-1-yl) pyrimidine-2,4-(H1, H3) dione] showed a melting point of 91 to 93 °C.

Take `Cc1cccc(Cn2c(-n3ccnc3)cc(=O)n(C)c2=O)c1` [Compound 4b, 3-methyl-1-(3-methylbenzyl)-6-(H1-imidazole-1-yl) pyrimidine-2,4-(H1, H3) dione]: the melting point is 123 to 124 °C. This compound also registered an IC50 in data set [1] (Homo sapiens, MCF7, 72 h) of 17.1 ± 1.3 µM. In data set [4], the IC50 lay in the range of 17.1 to 48.5 µM. Also, in data set [2] (setting [6]), the IC50 turned out to be 61.8 ± 2.3 µM. This compound came in with an IC50 in data set [3] (Homo sapiens, HepG2, 72 h) of 48.5 ± 1.97 µM.

As to `Cc1ccc(Cn2c(-n3cncn3)cc(=O)n(C)c2=O)cc1` [Compound 4j, 3-methyl-1-(4-methylbenzyl)-6-(H1-1,2,4-triazole-1-yl) pyrimidine-2,4-(H1, H3) dione], the melting point is 116 to 118 °C. In data set [1] (Homo sapiens, MCF7, 72 h), the IC50 amounted to 16.2 ± 1.02 µM. Also, the IC50 in data set [2] (setting [6]) is 57.3 ± 2.08 µM. Further, in data set [3] (Homo sapiens, HepG2, 72 h), half-maximal inhibition (IC50) was put at 7.56 ± 5.28 µM.

On to `Cc1cccc(Cn2c(-n3cncn3)cc(=O)n(C)c2=O)c1` [Compound 4i, 3-methyl-1-(3-methylbenzyl)-6-(H1-1,2,4-triazole-1-yl) pyrimidine-2,4-(H1, H3) dione], for which the melting point was in the range of 125 to 128 °C. Also, half-maximal inhibition in data set [1] (Homo sapiens, MCF7, 72 h) (IC50) required 43.1 ± 2.07 µM. Further, in data set [2] (setting [6]), the half-inhibitory concentration (IC50) is > 200 µM. Besides, in data set [3] (Homo sapiens, HepG2, 72 h), half-maximal inhibition (IC50) required 65.4 ± 2.15 µM.

On to `N.N.[Cl][Pt][Cl]` [Cis platin, Cisplatin, reference compound], for which the 50% inhibitory concentration (IC50) was determined as 20.7 ± 0.83 µM in data set [1] (72 h); 45.2 ± 2.5 µM in data set [2] (read-out: IC50 ± SD, MRC-5); 15.9 ± 1.83 µM in data set [3] (72 h).

As to `Cc1ccc(Cn2c(-n3ccnc3)cc(=O)n(C)c2=O)cc1` [Compound 4c, 3-methyl-1-(4-methylbenzyl)-6-(H1-imidazole-1-yl) pyrimidine-2,4-(H1, H3) dione], the melting point was in the range of 100 to 102 °C. Moreover, the IC50 in data set [1] (Homo sapiens, MCF7, 72 h) was 26.1 ± 4.41 µM. In data set [4], this compound registered an IC50 of 17.1 to 48.5 µM. In addition, the IC50 in data set [2] (setting [6]) came out at 101 ± 3.02 µM. Also, the IC50 in data set [3] (Homo sapiens, HepG2, 72 h) turned out to be 27.2 ± 1.66 µM.

In turn, `Cn1c(=O)cc(-n2ccnc2)n(Cc2ccccc2)c1=O` [Compound 4a, 3-methyl-1-(benzyl)-6-(H1-imidazole-1-yl) pyrimidine-2,4-(H1, H3) dione] returned a melting point of 138 to 142 °C. Also, the IC50 in data set [1] (Homo sapiens, MCF7, 72 h) worked out at 150.5 ± 0.77 µM. Besides, in data set [2] (setting [6]), the IC50 was > 200 µM. The compound further displayed a half-maximal inhibitory concentration (IC50) in data set [3] (Homo sapiens, HepG2, 72 h) of 193 ± 7.98 µM.

Take `Cc1ccc(Cn2cc(Cn3c(Cl)cc(=O)n(C)c3=O)nn2)cc1` [B]: the IC50 in the data set with Hela cell line is 4.5 µM; in the data set on Huha cell line, 7.7 µM.

For `Cc1nccn1-c1cc(=O)n(C)c(=O)n1Cc1ccc(Br)cc1` [Compound 4g, 3-methyl-1-(4-bromobenzyl)-6-(2-methyl-H1-imidazole-1-yl) pyrimidine-2,4-(H1, H3) dione], the melting point lay in the range of 160 to 162 °C. Further, in data set [1] (Homo sapiens, MCF7, 72 h), the IC50 was determined as 109 ± 3.74 µM. Also, the IC50 in data set [2] (setting [6]) was > 200 µM. Besides, the IC50 in data set [3] (Homo sapiens, HepG2, 72 h) was determined as 106 ± 3.03 µM.

As for `O=c1[nH]c(=O)n(Cc2ccc(-c3noc(-c4ccc(-c5ccccc5)cc4)n3)cc2)cc1F` [A], the IC50 in data set [5] is 0.88 µM.

`Cc1nccn1-c1cc(=O)n(C)c(=O)n1Cc1ccccc1` [Compound 4e, 3-methyl-1-(benzyl) 6-(2-methyl-H1-imidazol-1-yl) pyrimidine-2,4-(H1, H3) dione] registered a melting point of 138 to 140 °C. The compound further yielded an IC50 in data set [1] (Homo sapiens, MCF7, 72 h) of 92 ± 2.19 µM. Also, the concentration for half-maximal inhibition (IC50) in data set [2] (setting [6]) is > 200 µM.

In the case of `Cn1c(=O)cc(-n2ccnc2)n(Cc2ccc(Br)cc2)c1=O` [Compound 4d, 3-methyl-1-(4-bromobenzyl)-6-(H1-imidazole-1-yl) pyrimidine-2,4-(H1, H3) dione], the melting point fell in the range of 110 to 113 °C. In data set [1] (Homo sapiens, MCF7, 72 h), it took 131 ± 3.1 µM to reach half-maximal inhibition (IC50). The IC50 in data set [2] (setting [6]) was > 200 µM. Moreover, in data set [3] (Homo sapiens, HepG2, 72 h), the half-maximal inhibitory concentration (IC50) was determined as 177 ± 4.06 µM.
